Key:
Type in all cases: functional
[1] = tested on: HCC 2998; assay: Growth inhibition of human HCC 2998 cells assessed as cell growth at 0.01 uM incubated for 48 hrs by sulforhodamine B assay relative to control; details: read-out: Activity
[2] = tested on: SNB-19; assay: Growth inhibition of human SNB-19 cells assessed as cell growth at 0.01 uM incubated for 48 hrs by sulforhodamine B assay relative to control; details: read-out: Activity
[3] = tested on: SK-MEL-2; assay: Growth inhibition of human SK-MEL-2 cells assessed as cell growth at 0.01 uM incubated for 48 hrs by sulforhodamine B assay relative to control; details: read-out: Activity
[4] = tested on: 786-0; assay: Growth inhibition of human 786-0 cells assessed as cell growth at 0.01 uM incubated for 48 hrs by sulforhodamine B assay relative to control; details: read-out: Activity
[5] = tested on: RXF 393; assay: Growth inhibition of human RXF 393 cells assessed as cell growth at 0.01 uM incubated for 48 hrs by sulforhodamine B assay relative to control; details: read-out: Activity
[6] = tested on: SN12C; assay: Growth inhibition of human SN12C cells assessed as cell growth at 0.01 uM incubated for 48 hrs by sulforhodamine B assay relative to control; details: read-out: Activity
[7] = tested on: SF-539; assay: Growth inhibition of human SF-539 cells assessed as cell growth at 0.1 uM incubated for 48 hrs by sulforhodamine B assay relative to control; details: read-out: Activity
[8] = tested on: UACC-257; assay: Growth inhibition of human UACC-257 cells assessed as cell growth at 0.1 uM incubated for 48 hrs by sulforhodamine B assay relative to control; details: read-out: Activity
[9] = tested on: OVCAR-3; assay: Growth inhibition of human OVCAR-3 cells assessed as cell growth at 0.1 uM incubated for 48 hrs by sulforhodamine B assay relative to control; details: read-out: Activity
[10] = tested on: RXF 393; assay: Growth inhibition of human RXF 393 cells assessed as cell growth at 0.1 uM incubated for 48 hrs by sulforhodamine B assay relative to control; details: read-out: Activity
[11] = tested on: MCF7; assay: Growth inhibition of human MCF7 cells assessed as cell growth at 0.1 uM incubated for 48 hrs by sulforhodamine B assay relative to control; details: read-out: Activity
[12] = tested on: MDA-MB-231; assay: Growth inhibition of human MDA-MB-231 cells assessed as cell growth at 0.1 uM incubated for 48 hrs by sulforhodamine B assay relative to control; details: read-out: Activity
[13] = tested on: T47D; assay: Growth inhibition of human T47D cells assessed as cell growth at 0.1 uM incubated for 48 hrs by sulforhodamine B assay relative to control; details: read-out: Activity
[14] = tested on: HL-60(TB); assay: Growth inhibition of human HL-60(TB) cells assessed as cell growth at 1 uM incubated for 48 hrs by sulforhodamine B assay relative to control; details: read-out: Activity
[15] = tested on: HOP-62; assay: Growth inhibition of human HOP-62 cells assessed as cell growth at 1 uM incubated for 48 hrs by sulforhodamine B assay relative to control; details: read-out: Activity
[16] = tested on: HT-29; assay: Growth inhibition of human HT-29 cells assessed as cell growth at 1 uM incubated for 48 hrs by sulforhodamine B assay relative to control; details: read-out: Activity
[17] = tested on: U-251; assay: Growth inhibition of human U-251 cells assessed as cell growth at 1 uM incubated for 48 hrs by sulforhodamine B assay relative to control; details: read-out: Activity
[18] = tested on: SK-MEL-28; assay: Growth inhibition of human SK-MEL-28 cells assessed as cell growth at 1 uM incubated for 48 hrs by sulforhodamine B assay relative to control; details: read-out: Activity
[19] = tested on: SK-MEL-5; assay: Growth inhibition of human SK-MEL-5 cells assessed as cell growth at 1 uM incubated for 48 hrs by sulforhodamine B assay relative to control; details: read-out: Activity
[20] = tested on: OVCAR-3; assay: Growth inhibition of human OVCAR-3 cells assessed as cell growth at 1 uM incubated for 48 hrs by sulforhodamine B assay relative to control; details: read-out: Activity
[21] = tested on: CAKI-1; assay: Growth inhibition of human CAKI-1 cells assessed as cell growth at 1 uM incubated for 48 hrs by sulforhodamine B assay relative to control; details: read-out: Activity
[22] = tested on: DU-145; assay: Growth inhibition of human DU-145 cells assessed as cell growth at 1 uM incubated for 48 hrs by sulforhodamine B assay relative to control; details: read-out: Activity
[23] = tested on: HL-60(TB); assay: Growth inhibition of human HL-60(TB) cells assessed as cell growth at 100 uM incubated for 48 hrs by sulforhodamine B assay relative to control; details: read-out: Activity
[24] = tested on: SF-268; assay: Growth inhibition of human SF-268 cells assessed as cell growth at 100 uM incubated for 48 hrs by sulforhodamine B assay relative to control; details: read-out: Activity
[25] = tested on: SK-MEL-2; assay: Growth inhibition of human SK-MEL-2 cells assessed as cell growth at 100 uM incubated for 48 hrs by sulforhodamine B assay relative to control; details: read-out: Activity
[26] = tested on: UACC-62; assay: Growth inhibition of human UACC-62 cells assessed as cell growth at 100 uM incubated for 48 hrs by sulforhodamine B assay relative to control; details: read-out: Activity
[27] = tested on: OVCAR-8; assay: Growth inhibition of human OVCAR-8 cells assessed as cell growth at 100 uM incubated for 48 hrs by sulforhodamine B assay relative to control; details: read-out: Activity
[28] = tested on: CAKI-1; assay: Growth inhibition of human CAKI-1 cells assessed as cell growth at 100 uM incubated for 48 hrs by sulforhodamine B assay relative to control; details: read-out: Activity
[29] = tested on: RXF 393; assay: Growth inhibition of human RXF 393 cells assessed as cell growth at 100 uM incubated for 48 hrs by sulforhodamine B assay relative to control; details: read-out: Activity
[30] = tested on: DU-145; assay: Growth inhibition of human DU-145 cells assessed as cell growth at 100 uM incubated for 48 hrs by sulforhodamine B assay relative to control; details: read-out: Activity
[31] = tested on: RPMI-8226; assay: Growth inhibition of human RPMI-8226 cells incubated for 48 hrs by sulforhodamine B assay
[32] = tested on: A549; assay: Growth inhibition of human A549/ATCC cells incubated for 48 hrs by sulforhodamine B assay
[33] = tested on: SNB-19; assay: Growth inhibition of human SNB-19 cells incubated for 48 hrs by sulforhodamine B assay
[34] = tested on: SN12C; assay: Growth inhibition of human SN12C cells incubated for 48 hrs by sulforhodamine B assay
[35] = tested on: DU-145; assay: Growth inhibition of human DU-145 cells incubated for 48 hrs by sulforhodamine B assay
[36] = tested on: Hs-578T; assay: Growth inhibition of human Hs-578T cells incubated for 48 hrs by sulforhodamine B assay
[37] = read-out: LC50 (the source's name)
[38] = read-out: pLC50 (the source's name) (converted)

Work on CC(=O)Nc1cc(CO[Si](C)(C)C(C)(C)C)cc(NC(=O)c2ccc(C(=O)Nc3cccc(NC(=O)CCCN(C)C)c3)cc2)c1 yielded a growth at 0.01 µM [1] of 98%, a growth at 0.01 µM [2] of 96% and a growth at 0.01 µM [3] of 100%. For the same compound, the growth at 0.01 µM [4] was 97%, the growth at 0.01 µM [5] was 101% and the growth at 0.01 µM [6] was 96%. It also gave a growth at 0.1 µM [7] of 98%, a growth at 0.1 µM [8] of 90% and a growth at 0.1 µM [9] of 109%. The growth at 0.1 µM [10] was 102%, the growth at 0.1 µM [11] was 101% and the growth at 0.1 µM [12] was 95%. The growth at 0.1 µM [13] was 97%, the growth at 1 µM [14] was 86% and the growth at 1 µM [15] was 97%. For the same compound, the growth at 1 µM [16] was 113%, the growth at 1 µM [17] was 91% and the growth at 1 µM [18] was 98%. The growth at 1 µM [19] was 98%, the growth at 1 µM [20] was 109% and the growth at 1 µM [21] was 73%. The growth at 1 µM [22] was 88%, the growth at 100 µM [23] was 88% and the growth at 100 µM [24] was 82%. The growth at 100 µM [25] was 87%, the growth at 100 µM [26] was 72% and the growth at 100 µM [27] was 88%. It also gave a growth at 100 µM [28] of 77%, a growth at 100 µM [29] of 83% and a growth at 100 µM [30] of 85%. For the same compound, the GI50 ([31]; read-out: GI50) was greater than 75 µM, the CC50 [31, 37] was greater than 75 µM and the TGI ([31]; read-out: TGI) was greater than 75 µM. The GI50 ([31]; read-out: pGI50 (converted)) was greater than 75.9 µM, the CC50 [31, 38] was greater than 75.9 µM and the TGI ([31]; read-out: pTGI) was greater than 75.9 µM. It also gave a GI50 ([32]; read-out: GI50) greater than 75 µM, a CC50 [32, 37] greater than 75 µM and a TGI ([32]; read-out: TGI) greater than 75 µM. For the same compound, the GI50 ([32]; read-out: pGI50 (converted)) was greater than 75.9 µM, the CC50 [32, 38] was greater than 75.9 µM and the TGI ([32]; read-out: pTGI) was greater than 75.9 µM. For the same compound, the GI50 ([33]; read-out: GI50) was greater than 75 µM, the CC50 [33, 37] was greater than 75 µM and the TGI ([33]; read-out: TGI) was greater than 75 µM. The GI50 ([33]; read-out: pGI50 (converted)) was greater than 75.9 µM, the CC50 [33, 38] was greater than 75.9 µM and the TGI ([33]; read-out: pTGI) was greater than 75.9 µM. For the same compound, the GI50 ([34]; read-out: GI50) was greater than 75 µM, the CC50 [34, 37] was greater than 75 µM and the TGI ([34]; read-out: TGI) was greater than 75 µM. For the same compound, the GI50 ([34]; read-out: pGI50 (converted)) was greater than 75.9 µM, the CC50 [34, 38] was greater than 75.9 µM and the TGI ([34]; read-out: pTGI) was greater than 75.9 µM. It also gave a GI50 ([35]; read-out: GI50) greater than 75 µM, a CC50 [35, 37] greater than 75 µM and a TGI ([35]; read-out: TGI) greater than 75 µM. For the same compound, the GI50 ([35]; read-out: pGI50 (converted)) was greater than 75.9 µM, the CC50 [35, 38] was greater than 75.9 µM and the TGI ([35]; read-out: pTGI) was greater than 75.9 µM. For the same compound, the GI50 ([36]; read-out: GI50) was greater than 75 µM, the CC50 [36, 37] was greater than 75 µM and the TGI ([36]; read-out: TGI) was greater than 75 µM. It also gave a GI50 ([36]; read-out: pGI50 (converted)) greater than 75.9 µM, a CC50 [36, 38] greater than 75.9 µM and a TGI ([36]; read-out: pTGI) greater than 75.9 µM.

— ChEMBL document CHEMBL4715697, “Synthesis and biological activity of benzamide DNA minor groove binders” (2016)
